Measured values as given in US20260240819A1, “KAT6 INHIBITOR METHODS AND COMBINATIONS FOR CANCER TREATMENT” (Pfizer Inc., priority 2020, published 2026).
Values belong to the compound of their own block, whether it stands above or below them.

Key:
T47D cells [1] = assay: Proliferation colony formation assay (SRB stain); assay type: cell-based
Procedure: (§1) T47D, ZR-75-1, or MCF7 cells were seeded into 6-well tissue culture plates at 10% seeding confluence (100,000-150,000 cells per well). After allowing 18-24 hours for the cells to attach to the wells, growth media was aspirated and discarded and new growth media containing 0-20 μM of either COMPOUND A or COMPOUND B was added in 2-fold increments of descending concentration from 20 μM to the cells (proliferation assay). In parallel, seeded cultures with the same titration of the KAT6 inhibitors was added to the cells. 500 nM palbociclib was also added for each concentration of the KAT6 inhibitors (palbociclib recovery assay). The cultures were incubated 12-14 days and treated with these inhibitors/inhibitor combinations. Growth media containing the inhibitors was replaced on the cell cultures every 3-4 days (twice per week).
For the KAT6 inhibitor treated T47D cultures (proliferation assay), after 12 days the vehicle (DMSO) treated cultures were >90% confluent and the cell cultures were SRB stained as described in Example 3. The stained 6-well plates were scanned using an Epson Perfection V600 Photo Scanner and Epson Scan version 3.9.2.0 software. To quantitate SRB staining in each 6-well culture, the cultures were destained with 2 mL 10 mM Tris pH 7.5 per well and the absorbance at 565 nm (O.D. 565) of the released stain was measured using a SpectraMax Plus plate reader and SoftMaxPro 5.4.3 software. Inhibition of T47D cell proliferation by both COMPOUND A and COMPOUND B were equivalent with 50% proliferation inhibition observed with 10 μM of the KAT6 inhibitors (FIGS. 8A and 8C).
Cells were plated at low density into 6-well culture dishes and allowed to attach overnight at 37° C., 5% CO2. The next day, in parallel to the proliferation set, palbociclib was added at a final concentration of […] to another set of plates, which served as the set for palbociclib recovery. To both proliferation and palbociclib recovery plates, DMSO or KAT6 inhibitor was added into each well at increasing doses. Medium and KAT6 inhibitor were refreshed twice a week. Cells were cultured for about two weeks of drug treatment until the DMSO-treated wells reached confluency. At the end of treatment, cells were washed once with phosphate-buffered saline and were fixed and stained with SRB for visualization followed by quantification. […] Wells were fixed and stained with SRB for visualization followed by quantification. To quantify the stain, stained cells were dissolved in 2 mL of 10 mM Tris-HCl, pH 7.5 and shaken for 10 min on a shaker. Samples were then diluted with 10 mM Tris-HCl, pH 7.5, transferred to a 96-well microtiter plate in a volume of 100 μL and read on SpetraMax at 565 nm.

ZR-75-1 cells = assay: Proliferation colony formation assay (SRB stain); assay type: cell-based
Procedure: as §1
For the ZR-75-1 and MCF7 experiments, only COMPOUND A was tested. For the single agent treated ZR-75-1 cultures the vehicle treated cultures were >90% confluent after 12 days of treatment. These cultures were SRB stained, scanned, and destained/measured as described above. […] After 22 days of recovery, the ZR-75-1 cultures that had been treated with single agent 500 nM palbociclib were >90% confluent and these palbociclib recovery assay cultures were SRB stained, scanned, and destained/measured as described above.
Cells were plated at low density into 6-well culture dishes and allowed to attach overnight at 37° C., 5% CO2. […] At the end of treatment, cells were washed once with phosphate-buffered saline and were fixed and stained with SRB for visualization followed by quantification. […] Wells were fixed and stained with SRB for visualization followed by quantification. To quantify the stain, stained cells were dissolved in 2 mL of 10 mM Tris-HCl, pH 7.5 and shaken for 10 min on a shaker. Samples were then diluted with 10 mM Tris-HCl, pH 7.5, transferred to a 96-well microtiter plate in a volume of 100 μL and read on SpetraMax at 565 nm.

[2] = test system: estradiol response genes in T47D cells; assay: RNA-Seq gene set enrichment analysis; assay type: cell-based; conditions: 20 nM, 6-day treatment, GSEA
Procedure: The following day, cells were treated with vehicle control (DMSO) or COMPOUND C at 20 nM concentration. Media and compounds were refreshed three days later for a total of 6-day treatment. At the end of the 6-day treatment, cells were harvested by trypsinization and lysed in Buffer RLT (Qiagen, Cat No./ID 79216)^+β-mercaptoethanol. RNA lysates were submitted for RNA sequencing (“RNA-Seq”) (WuXi NextCODE®).
RNA-Seq data analysis: Adapter sequences were trimmed off from the Illumina raw reads, provided by WuXi NextCODE®, using Trimmomatic (v0.36) for paired-end reads, and low-quality reads were filtered out. Reads remaining after the pre-processing step were mapped to the reference genome hg38 using STAR (v2.6.0c). Gene level expression was quantitated as expected counts and transcripts per million (TPM) using “rsem-calculate-expression” of RSEM (v1.3.0) with default parameters. Differential expression analysis of robustly expressed genes (max expression across samples >=10) was performed using DESeq2 (v1.18.1) package. Gene set enrichment analysis (GSEA, v3.0) was conducted using GseaPreranked option. Genes were ranked based on signedlog10pval. Gene set collections (c2.all.v6.1) from Molecular Signatures Database (MSigDB) were used in this analysis.

[3] = test system: ERα and Cyclin D1 in T47D cells; assay: Western blot after KAT6 inhibitor dose titration; assay type: cell-based; conditions: increasing concentrations, 14 days
Procedure: Cells were plated at 10,000 cells per well into 6-well culture dishes and allowed to attach overnight at 37° C., 5% CO2. The next day, either COMPOUND C or COMPOUND D was added to wells at increasing concentrations, in addition to DMSO as vehicle control. Cells were cultured for 14 days with medium and KAT6 inhibitor refreshed twice a week (every 3-4 days). At the end of drug treatment, one million cells were collected via trypsinization for protein lysates. Cells were lysed in 100 μL 1× LDS buffer diluted from 4× LDS buffer (ThermoFisher catalog #NP0007) with reducing agent (ThermoFisher catalog #NP0009). The lysates were subsequently sonicated and loaded onto a NuPAGE 4-12% Bis-Tris gel (ThermoFisher, catalog #NP0321BOX) followed by electrophoresis. Gels were then transferred onto a nitrocellulose membrane (iBlot2, ThermoFisher). Membranes were blocked and incubated overnight at 4° C. with following antibodies: anti-ERα (D8H8) Rabbit mAb (#8644, Cell Signaling) and anti-β-actin (8H10D10) mouse mAb (Cell Signaling, #3700S). […]

T47D cells [4] = assay: Palbociclib growth arrest and recovery, cell counts; assay type: cell-based; conditions: 500 nM palbociclib
Procedure: T47D and MCF7 were confirmed as ER+ breast cancer cell lines using short tandem repeat (“STR”) testing (ATCC STR profiling service). […] After allowing 18-24 hours for the cells to attach to the plates, 500 nM palbociclib was added to each culture. Growth media and palbociclib was refreshed twice per week (every 3-4 days). […] For T47D cultures, the cells were suspended by trypsinization from triplicate cultures on days 1, 14, and 24 of palbociclib treatment and the cell density of each suspension was measured using a Vi-Cell XR cell counter. In a separate experiment, three additional T47D cultures were treated for 14 days with 500 nM palbociclib, then the palbociclib was washed off the cells and the cells were allowed to recover for 10 days. After 10 days of recovery, the cells were suspended by trypsinization and the cell density of each suspension was measured by cell counter.

MCF7 cells = assay: as above; assay type: cell-based; conditions: MCF7, 500 nM palbociclib
Procedure: T47D and MCF7 were confirmed as ER+ breast cancer cell lines using short tandem repeat (“STR”) testing (ATCC STR profiling service). […] After 6 and 14 days of palbociclib treatment, the cells in each well were suspended by trypsinization and cell densities were measured by cell counter. For the additional MCF7 cultures that were treated, in parallel, for either 6 or 14 days with 500 nM palbociclib, the palbociclib was washed off the cells and they were allowed 7-8 days to recover. After this recovery period, the cells were suspended by trypsinization and the cell densities of each suspension were measured. Similar to the T47D cells, palbociclib treatment stably arrested MCF7 cells for up to 14 days of treatment (FIG. 1B). However, after removing palbociclib from the MCF7 cultures treated for either 6 or 14 days, the cells readily re-entered the cell cycle and proliferated.

CAMA1 cells = assay: Profiling of the response of CAMA1 to palbociclib; assay type: cell-based
[5] = test system: ERα protein in MCF7 cells; assay: Western blot after palbociclib treatment; assay type: cell-based; conditions: MCF7, 500 nM palbociclib, 8 days
Procedure: (§2) Cells were seeded into 6-well culture plates and allowed to attach overnight at 37° C., 5% CO2. […] Medium was refreshed every 3 days. At 3, 6 and 8 days of treatment, cells were harvested for protein and RNA lysates.

[6] = test system: ERα protein in T47D cells; assay: Western blot after palbociclib treatment; assay type: cell-based; conditions: 500 nM palbociclib, 8 days
Procedure: as §2

[7] = test system: ER+ breast cancer PDX model ST340; assay: PDX tumor growth inhibition study; assay type: in vivo, female athymic nude mice; conditions: doses per Table 7; for % TGI Delta: PDX ST340, day 21, compared to Vehicle
Procedure: (§3) Combination studies with palbociclib, fulvestrant and the KAT6 inhibitor, Compound E (KAT6i), were performed in two ER+ breast cancer PDX models: ST340 and ST941. ST340 was wildtype for ESR1. […] Both studies were conducted by XenoSTART (San Antonio, Texas), where 6-12 week-old female athymic nude mice (JAX, stock #007850) were subcutaneously implanted with ~70 mg tumor fragments. Animals were supplemented with exogenous estradiol ad libitum via drinking water throughout the duration of the studies. Tumor measurements and animal weights were captured twice per week, and animals were stratified and enrolled into the study when the mean tumor volume (TV, formula: width^2×length×0.5) reached 150-300 mm^3.
(§4) Each study contained eight treatment groups of n=10 animals per group. The groups were as follows: 1) Vehicle (5% DMSO/40% PEG300/55% 1×PBS), 2) Compound E, 3) palbociclib, 4) fulvestrant, 5) palbociclib+fulvestrant, 6) Compound E +fulvestrant, 7) Compound E+palbociclib, and 8) Compound E+palbociclib+fulvestrant. Animals remained on study and were continued on treatments until the mean tumor volume of each group reached ~1500 mm^3. At that point, the final dose was administered, animals were sacrificed, and terminal samples were collected. Blood microsamples were collected from each group for pharmacokinetics (PK) analysis at 0, 3, and 7 hrs (n=3/timepoint) on day 14 of dosing and again on the terminal day of dosing.
(§5) Analysis of covariance (ANCOVA) was used to determine statistical significance when comparing percent TGI between groups. Changes in bodyweights were calculated in relation to starting bodyweights at study initiation (day 0 of treatment).

[8] = Bodyweight and health monitoring, PDX ST340 study; assay type: in vivo, female athymic nude mice; conditions: relative to day 0
Procedure: as §3, §4, §5

[9] = Bodyweight and health monitoring, PDX ST941 study; assay type: in vivo, female athymic nude mice; conditions: relative to day 0
Procedure: as §3, §4, §5

SMILES: COc1cccc(OC)c1S(=O)(=O)Nc1noc2cc(Cn3cccn3)cc(OC)c12 [COMPOUND C, 2,6-dimethoxy-N-{4-methoxy-6-[(1H-pyrazol-1-yl)methyl]-1,2-benzoxazol-3-yl}benzene-1-sulfonamide]
Kind of effect on cell growth (T47D cells [1]; dose titration): cytostatic
Maximal reduction of growth (T47D cells [1]; single agent, about two weeks): about 40%
IC50 (ZR-75-1 cells; Homo sapiens, ZR-75-1, ZR75-1, single agent, about two weeks, read-out: Concentration giving 50% growth inhibition): ~3.9 nM
Kind of effect on cell growth (ZR-75-1 cells; ZR75-1, dose titration): strong dose-dependent cytotoxic effect
NES (Normalized Enrichment Score), estradiol-induced genes [2]: −9,92
NES (Normalized Enrichment Score), estradiol-repressed genes [2]: 6.27
ERα and Cyclin D1 protein [3]: dose-dependent depletion

Day 21 mean change in bodyweight [8]: −2%
Maximum mean bodyweight loss [8]: −3%
Day 17 mean change in bodyweight [9]: −1%
Maximum mean bodyweight loss [9]: −3%
SMILES: CC(=O)c1c(C)c2cnc(Nc3ccc(N4CCNCC4)cn3)nc2n(C2CCCC2)c1=O [Palbociclib, 6-acetyl-8-cyclopentyl-5-methyl-2-(5-piperazin-1-yl-pyridin-2-ylamino)-8H-pyrido[2,3-d]pyrimidin-7-one]
Effect on cell cycle (T47D cells [4]): complete cell cycle arrest
Reversibility of growth arrest (T47D cells [4]; after withdrawal): reversible upon palbociclib withdrawal
Effect on cell cycle (MCF7 cells): complete cell cycle arrest
Reversibility of growth arrest (MCF7 cells; after withdrawal): reversible upon palbociclib withdrawal
Effect of single agent treatment on proliferation (CAMA1 cells): irreversible proliferation arrest
Reduction of ERα protein level [5]: about 50%
Reduction of ERα protein level [6]: about 50%
% TGI Delta [7]: 43.7%
% TGI Delta ([7]; listed as palbociclib): ~ 40%
Mean ± SEM (day 21) ([7]; PDX ST340, tumor volume (mm^3)): 1051.4 ± 134
